Test results as given in patent publication US10526370B2, “Pentapeptide associated with integrin receptor alpha vbeta3” (priority 2015, dated 2020).
“Also recorded” adds a separate entry of the source. Like-named read-outs stand apart in the source and are kept apart here. Where a SMILES comes first, the peptide text is derived from it. [ ]: non-standard residue; d: D form.

Legend:
[1] = system: U87MG cells; assay: In vitro cell affinity test (flow cytometry); assay type: cell-based, human; settings: rhodamine-labeled peptides, FIG. 1
Description: The human malignant glioma cells (U87MG) and the human breast cancer cells (MDA-MB-231) were cultured in a 6-well plate for 12 hours. Then, 100 μL of a polypeptide fluorescent probe labeled with rhodamine B (final concentration 250 μM) was added and co-incubated for 2 hours with gently shaking on a shaker at 37° C. Next, the cells were digested with 0.05% trypsin and washed off from the 6-wells plate. The cells were re-suspended in 1 mL PBS buffer (pH 7.2), and centrifuged (3500 r, 5 min). The supernatant was aspirated and discarded. The pellet was washed twice with a PBS buffer (pH7.2). After washing, the cells were re-suspended in a PBS buffer (pH 7.2). The mean fluorescence intensity (MFI) of the cells was quantified by using a flow cytometer. The higher the fluorescence intensity is, the greater the affinity for the cells will be. When the probe has a high affinity for the receptor on the cells, the cells have a high value of MFI measured by the flow cytometer. […] The dye used as a blank has a MFI of 25.

[2] = system: MCF-7 cells; assay: In vitro cellular uptake assay (laser confocal microscopy); assay type: cell-based, human; settings: MCF-7, 500 μmol/L, 2-hour incubation at 37° C., FIG. 4
Description: (§1) The cultured human glioma cells U87MG, human breast cancer cells MDA-MB-231, human breast cancer cells MCF-7 and normal liver cells L02 were transferred to a confocal dish respectively, and incubated overnight. Then, the rhodamine B-labeled pentapeptide was added at the same concentration (500 μmol/L). The cyclic RGD labeled with the rhodamine B is added and used as a positive control. After 2-hour incubation at 37° C., the cells were stained with 12 μg/mL of the nuclear staining reagent Hochest 33342. Finally, the intracellular uptake of the probe was observed under a laser confocal microscope.

[3] = system: MDA-MB-231 cells; assay: as above; assay type: cell-based, human; settings: MDA-MB-231, 500 μmol/L, 2-hour incubation at 37° C., FIG. 3
Description: as §1

[4] = system: U87MG cells; assay: as above; assay type: cell-based, human; settings: 500 μmol/L, 2-hour incubation at 37° C., FIG. 3
Description: as §1

[5] = system: L02 cells; assay: as above; assay type: cell-based; settings: L02, 500 μmol/L, 2-hour incubation at 37° C., FIG. 4
Description: as §1

[6] = In vitro cellular cytotoxicity assay; assay type: cell-based; settings: human
Description: When the U87MG cells, MCF-7 cells and normal liver cells L02 were grown to 90% confluent or higher, the cells were digested with 0.25% trypsin and then suspended in a complete growth medium to obtain a single cell suspension. The cells were plated at a density of 3000 cells/well in a 96-well plate, and cultured at 37° C. in an incubator containing 5% CO2. After 24-hour incubation, the medium was changed to a low-serum culture medium supplemented with 1% FBS. Then, the pentapeptide was added at different concentration gradients, to achieve a final concentration of 2.5, 5, 10, 20, 40, 80, 100 and 200 μM.

CSCC[C@H](NC(=O)[C@H](CC(N)=O)NC(=O)[C@@H](CCCNC(=N)N)NC(=O)[C@H](Cc1c[nH]c2ccccc12)NC(=O)[C@@H](N)CCCNC(=N)N)C(N)=O [pentapeptide, Arg-Trp-Arg-Asn-Met] (H-RW[dR]NM-NH2; N-terminus and C-terminus assumed)
affinity for U87 cells (comparison in words) [1]: greatest affinity | intracellular uptake of the probe (fluorescence intensity) [2]: poor affinity and low | intracellular uptake of the probe (fluorescence intensity) [3]: strong ability to uptake; also recorded: strong fluorescence intensity | intracellular uptake of the probe (fluorescence intensity) [4]: strong ability to uptake; also recorded: strong fluorescence intensity | intracellular uptake of the probe (fluorescence intensity) [5]: poor affinity and low | viability ([6]; MCF-7 cells, MCF-7, pentapeptide 2.5-200 μM, FIG. 6, read-out: cell survival rate): ≥ 80% | viability ([6]; U87MG cells, pentapeptide 2.5-200 μM, FIG. 6, read-out: cell survival rate): ≥ 80% | viability ([6]; normal liver cells L02, L02, pentapeptide 2.5-200 μM, FIG. 6, read-out: cell survival rate): ≥ 80%
